Data published in US12577228B2, “Dihydrocyclopenta-isoquinoline-sulfonamide derivatives compounds” (UCB Biopharma SRL, priority 2019, dated 2026).

What follows are compounds tested against T1, IgE-Tb / soluble IgE receptor FcεRIα with a Y131A mutation (Homo sapiens, UniProt P01854, N146Q/N252Q) (assay: in vitro FRET assay: binding of IgE-Tb to receptor FcεRIα-Y131A-AF488 and its inhibition by compounds). Details: 5 nM IgE-Tb, 25 nM FcεRIα-Y131A-AF488, 2 hours at room temperature; read-out: FRET IC50 range.
T1 construct: fused on or other part: Terbium chelate (LanthaScreen amine-reactive) on IgE-Fc; Alexa Fluor 488 hydrazide on the oxidised glycans of sFcεRIα; Both are labels and no part of the key
T1 sequence (P01854 104-427 N146Q/N252Q): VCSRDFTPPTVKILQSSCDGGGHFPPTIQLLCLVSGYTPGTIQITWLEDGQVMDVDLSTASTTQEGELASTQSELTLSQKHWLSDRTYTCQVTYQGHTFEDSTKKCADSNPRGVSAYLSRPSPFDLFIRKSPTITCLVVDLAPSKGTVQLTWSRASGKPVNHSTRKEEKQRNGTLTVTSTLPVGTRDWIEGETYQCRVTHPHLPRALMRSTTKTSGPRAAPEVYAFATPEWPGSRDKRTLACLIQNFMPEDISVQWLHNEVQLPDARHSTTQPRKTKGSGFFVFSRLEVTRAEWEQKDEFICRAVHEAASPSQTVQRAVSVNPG
T1 sequence (P12319 26-201 Y156A partner): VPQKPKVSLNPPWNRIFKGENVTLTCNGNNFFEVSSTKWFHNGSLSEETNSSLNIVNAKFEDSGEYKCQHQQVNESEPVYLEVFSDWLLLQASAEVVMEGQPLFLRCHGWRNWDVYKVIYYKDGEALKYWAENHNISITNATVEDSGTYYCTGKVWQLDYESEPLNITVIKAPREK
Work on `CC(C)(F)CNS(=O)(=O)c1c2c(cc3cnc(C4CC4)cc13)C[C@@H](Nc1cnc(Cl)cc1OCC1CC1)C2` [Example 119, (7R)-7-[[6-chloro-4-(cyclopropylmethoxy)pyridin-3-yl]amino]-3-cyclopropyl-N-(2-fluoro-2-methylpropyl)-7,8-dihydro-6H-cyclopenta[g]isoquinoline-5-sulfonamide] yielded an IC50 of 50 to 100 nM.
For `CC(C)(F)CNS(=O)(=O)c1c2c(cc3cnc(C4CC4)cc13)C[C@@H](Nc1cncnc1OC1CCOCC1)C2` [Example 120, (7R)-3-cyclopropyl-N-(2-fluoro-2-methylpropyl)-7-[[4-(oxan-4-yloxy)pyrimidin-5-yl]amino]-7,8-dihydro-6H-cyclopenta[g]isoquinoline-5-sulfonamide], the IC50 was 50 to 100 nM.
In the case of `CC(=O)Nc1cncc(NC2Cc3cc4cnc(C5CC5)cc4c(S(=O)(=O)NCC(C)(C)F)c3C2)c1` (stereo not drawn) [Example 121, N-[5-[[3-cyclopropyl-5-[(2-fluoro-2-methylpropyl)sulfamoyl]-7,8-dihydro-6H-cyclopenta[g]isoquinolin-7-yl]amino]pyridin-3-yl]acetamide], the IC50 is reported as 10 to 50 nM.
`CC(C)(F)CNS(=O)(=O)c1c2c(cc3cnc(C4CC4)cc13)CC(Nc1cncc(C#N)c1)C2` (stereo not drawn) [Example 122, 7-[(5-cyanopyridin-3-yl)amino]-3-cyclopropyl-N-(2-fluoro-2-methylpropyl)-7,8-dihydro-6H-cyclopenta[g]isoquinoline-5-sulfonamide] was tested, and the IC50 was 100 to 2000 nM.
Compound `CC(C)(F)CNS(=O)(=O)c1c2c(cc3cnc(C4CC4)cc13)CC(Nc1cncc(S(C)(=O)=O)c1)C2` (stereo not drawn) [Example 123, 3-cyclopropyl-N-(2-fluoro-2-methylpropyl)-7-[(5-methylsulfonylpyridin-3-yl)amino]-7,8-dihydro-6H-cyclopenta[g]isoquinoline-5-sulfonamide] has an IC50 of 10 to 50 nM.
`CC(C)(F)CNS(=O)(=O)c1c2c(cc3cnc(C4CC4)cc13)C[C@@H](Nc1cnc(-c3nnn[nH]3)nc1)C2` [Example 124, (7R)-3-cyclopropyl-N-(2-fluoro-2-methylpropyl)-7-[[2-(1H-tetrazol-5-yl)pyrimidin-5-yl]amino]-7,8-dihydro-6H-cyclopenta[g]isoquinoline-5-sulfonamide] was tested, and the IC50 was 10 to 50 nM.
`Cn1nnc(-c2ccc(N[C@@H]3Cc4cc5cnc(C6CC6)cc5c(S(=O)(=O)NCC(C)(C)F)c4C3)cc2)n1` [Example 125, (7R)-3-cyclopropyl-N-(2-fluoro-2-methylpropyl)-7-[4-(2-methyltetrazol-5-yl)anilino]-7,8-dihydro-6H-cyclopenta[g]isoquinoline-5-sulfonamide] was tested, and the IC50 was 50 to 100 nM.
In the case of `CC(C)(F)CNS(=O)(=O)c1c2c(cc3cnc(C4CC4)cc13)C[C@@H](Nc1cnc(Cl)cc1-c1nnn[nH]1)C2` [Example 126, (7R)-7-[[6-chloro-4-(1H-tetrazol-5-yl)pyridin-3-yl]amino]-3-cyclopropyl-N-(2-fluoro-2-methylpropyl)-7,8-dihydro-6H-cyclopenta[g]isoquinoline-5-sulfonamide], the IC50 is reported as 100 to 2000 nM.
`CC(C)(F)CNS(=O)(=O)c1c2c(cc3cnc(C4CC4)cc13)C[C@@H](NC1=CC(=O)COC1)C2` [Example 127, (7R)-3-cyclopropyl-N-(2-fluoro-2-methylpropyl)-7-[(5-oxo-2H-pyran-3-yl)amino]-7,8-dihydro-6H-cyclopenta[g]isoquinoline-5-sulfonamide] was tested, and the IC50 was 100 to 2000 nM.
Work on `Cn1ccc(Oc2ccncc2N[C@@H]2Cc3cc4cnc(C5CC5)cc4c(S(=O)(=O)NCC(C)(C)F)c3C2)n1` [Example 128, (7R)-3-cyclopropyl-N-(2-fluoro-2-methylpropyl)-7-[[4-(1-methylpyrazol-3-yl)oxypyridin-3-yl]amino]-7,8-dihydro-6H-cyclopenta[g]isoquinoline-5-sulfonamide] yielded an IC50 of 50 to 100 nM.
`Cc1nnc(-c2ncc(N[C@@H]3Cc4cc5cnc(C6CC6)cc5c(S(=O)(=O)NCC(C)(C)F)c4C3)cn2)o1` [Example 129, (7R)-3-cyclopropyl-N-(2-fluoro-2-methylpropyl)-7-[[2-(5-methyl-1,3,4-oxadiazol-2-yl)pyrimidin-5-yl]amino]-7,8-dihydro-6H-cyclopenta[g]isoquinoline-5-sulfonamide] gave an IC50 of 10 to 50 nM.
`CC(C)(F)CNS(=O)(=O)c1c2c(cc3cnc(C4CC4)cc13)C[C@@H](NC(=O)c1c[nH]c3ccccc13)C2` [Example 130, N-[(7R)-3-cyclopropyl-5-[(2-fluoro-2-methylpropyl)sulfamoyl]-7,8-dihydro-6H-cyclopenta[g]isoquinolin-7-yl]-1H-indole-3-carboxamide] showed an IC50 of 10 to 50 nM.
With `CC(C)(F)CNS(=O)(=O)c1c2c(cc3cnc(C4CC4)cc13)C[C@@H](NC(=O)c1c[nH]c3ccc(F)cc13)C2` [Example 131, N-[(7R)-3-cyclopropyl-5-[(2-fluoro-2-methylpropyl)sulfamoyl]-7,8-dihydro-6H-cyclopenta[g]isoquinolin-7-yl]-5-fluoro-1H-indole-3-carboxamide] the IC50 was 10 to 50 nM.
`Cn1cc(C(=O)N[C@@H]2Cc3cc4cnc(C5CC5)cc4c(S(=O)(=O)NCC(C)(C)F)c3C2)c2ccccc21` [Example 132, N-[(7R)-3-cyclopropyl-5-[(2-fluoro-2-methylpropyl)sulfamoyl]-7,8-dihydro-6H-cyclopenta[g]isoquinolin-7-yl]-1-methylindole-3-carboxamide] showed an IC50 of 10 to 50 nM.
With `COc1ccc2c(C(=O)N[C@@H]3Cc4cc5cnc(C6CC6)cc5c(S(=O)(=O)NCC(C)(C)F)c4C3)c[nH]c2c1` [Example 133, N-[(7R)-3-cyclopropyl-5-[(2-fluoro-2-methylpropyl)sulfamoyl]-7,8-dihydro-6H-cyclopenta[g]isoquinolin-7-yl]-6-methoxy-1H-indole-3-carboxamide] the IC50 was 10 to 50 nM.
Work on `Cc1ncsc1C(=O)N[C@@H]1Cc2cc3cnc(C4CC4)cc3c(S(=O)(=O)NCC(C)(C)F)c2C1` [Example 134, N-[(7R)-3-cyclopropyl-5-[(2-fluoro-2-methylpropyl)sulfamoyl]-7,8-dihydro-6H-cyclopenta[g]isoquinolin-7-yl]-4-methyl-1,3-thiazole-5-carboxamide] yielded an IC50 of 100 to 2000 nM.
Work on `CC(C)(F)CNS(=O)(=O)c1c2c(cc3cnc(C4CC4)cc13)C[C@@H](NC(=O)c1nccc3ccccc13)C2` [Example 135, N-[(7R)-3-cyclopropyl-5-[(2-fluoro-2-methylpropyl)sulfamoyl]-7,8-dihydro-6H-cyclopenta[g]isoquinolin-7-yl]isoquinoline-1-carboxamide] yielded an IC50 of 100 to 2000 nM.
With `CC(C)(F)CNS(=O)(=O)c1c2c(cc3cnc(C4CC4)cc13)C[C@@H](NC(=O)c1ccc3c(c1)CN(C(=O)OC(C)(C)C)C3)C2` [Example 136, tert-butyl 5-[[(7R)-3-cyclopropyl-5-[(2-fluoro-2-methylpropyl)sulfamoyl]-7,8-dihydro-6H-cyclopenta[g]isoquinolin-7-yl]carbamoyl]-1,3-dihydroisoindole-2-carboxylate] the IC50 was 10 to 50 nM.
`Cn1cc(C(=O)C(=O)N[C@@H]2Cc3cc4cnc(C5CC5)cc4c(S(=O)(=O)NCC(C)(C)F)c3C2)cn1` [Example 137, N-[(7R)-3-cyclopropyl-5-[(2-fluoro-2-methylpropyl)sulfamoyl]-7,8-dihydro-6H-cyclopenta[g]isoquinolin-7-yl]-2-(1-methylpyrazol-4-yl)-2-oxoacetamide] was tested, and the IC50 was 100 to 2000 nM.
For `CC(C)(F)CNS(=O)(=O)c1c2c(cc3cnc(C4CC4)cc13)C[C@@H](Nc1cnc(C(=O)O)c3ccccc13)C2` [Example 138, lithium; 4-[[(7R)-3-cyclopropyl-5-[(2-fluoro-2-methyl-propyl)sulfamoyl]-7,8-dihydro-6H-cyclopenta[g]isoquinolin-7-yl]amino]isoquinoline-1-carboxylate], the IC50 was 50 to 100 nM.
With `C[S+]([O-])c1ccc(NC2Cc3cc4cnc(C5CC5)cc4c(S(=O)(=O)NCC(C)(C)F)c3C2)cn1` (stereo not drawn) [Example 139, 3-cyclopropyl-N-(2-fluoro-2-methylpropyl)-7-[(6-methylsulfinylpyridin-3-yl)amino]-7,8-dihydro-6H-cyclopenta[g]isoquinoline-5-sulfonamide] the IC50 was 10 to 50 nM.
With `Cn1ncc(NC2Cc3cc4cnc(C5CC5)cc4c(S(=O)(=O)NCC(C)(C)F)c3C2)cc1=O` (stereo not drawn) [Example 140, 3-cyclopropyl-N-(2-fluoro-2-methylpropyl)-7-[(1-methyl-6-oxopyridazin-4-yl)amino]-7,8-dihydro-6H-cyclopenta[g]isoquinoline-5-sulfonamide] the IC50 was 10 to 50 nM.
Work on `CC(C)(F)CNS(=O)(=O)c1c2c(cc3cnc(C4CC4)cc13)C[C@@H](NC(=O)c1n[nH]c3cc(Br)ccc13)C2` [Example 141, 6-bromo-N-[(7R)-3-cyclopropyl-5-[(2-fluoro-2-methylpropyl)sulfamoyl]-7,8-dihydro-6H-cyclopenta[g]isoquinolin-7-yl]-1H-indazole-3-carboxamide] yielded an IC50 of 100 to 2000 nM.
`CC(C)(F)CNS(=O)(=O)c1c2c(cc3cnc(C4CC4)cc13)CC(NC1=CC(=O)OC1)C2` (stereo not drawn) [Example 142, 3-cyclopropyl-N-(2-fluoro-2-methylpropyl)-7-[(5-oxo-2H-furan-3-yl)amino]-7,8-dihydro-6H-cyclopenta[g]isoquinoline-5-sulfonamide] gave an IC50 of 100 to 2000 nM.
